Some results are limits rather than exact numbers.

Data set [1] has as its system HCV replicon in human hepatoma Huh-7 cell line. Description: Anti-HCV replicon assay, EC50 (luciferase luminescence). Type of data set: cell-based. Particulars: Hepatitis C virus, Huh-7, 72 h. In short, it runs like this:
(§1)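 Huh-7 cells carrying HCV replicon (6000/well) incubated with serially diluted compound, 0.5% DMSO final, 3 days at 37° C, 5% CO2. EC50 from luciferase luminescence after 30 min lysis/substrate at room temperature; CC50 from CellTiter-Glo luminescence after 10 min at room temperature.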

Data set [2] is described as follows: CC50 assay (CellTiter-Glo) in Huh-7 HCV replicon cells. Type of data set: cell-based. The note with it: human. In short, it runs like this:
as §1
A general note: In ATP-based viability assays light output follows the ATP content of the culture.

Regarding `CCS(=O)(=O)c1cccc(-c2ccc3nc(NCc4ccc(-n5cncn5)cc4)nc(NCC(F)(F)F)c3n2)c1` [Example 181, N^2-(4-(1H-1,2,4-triazol-1-yl)benzyl)-6-(3-(ethylsulfonyl)phenyl)-N^4-(2,2,2-trifluoroethyl)pyrido [3,2-d]pyrimidine-2,4-diamine], the EC50 (commonly the concentration giving half of the maximal effect) in data set [1] is < 0.1 µM. In addition, the CC50 (in general, the concentration at which the toxic effect on the cells reaches its halfway point) at 3 days in data set [2] (Table 2, 3 days incubation) is > 10 µM.
For `O=C1NCCN1c1ccc(-c2ccc3nc(NCc4ccc(-n5cncn5)cc4)nc(NC4(C(F)(F)F)CC4)c3n2)cc1` [Example 129, 1-(4-(2-(4-(1H-1,2,4-triazol-1-yl)benzylamino)-4-(1-(trifluoromethyl)cyclopropyl-amino)pyrido[3,2-d]pyrimidin-6-yl)phenyl)imidazolidin-2-one], the EC50 in data set [1] is < 0.1 µM. Besides, in data set [2] (Table 2, 3 days incubation), the cytotoxic concentration (CC50) at 3 days is < 1 µM.
In the case of `CC(Cn1cncn1)Nc1nc(NC2(C(F)(F)F)CC2)c2nc(-c3ccc(N)nc3)ccc2n1` (stereo not drawn) [Example 31, 6-(6-amino-pyridin-3-yl)-N2-(1-methyl-2-[1,2,4]triazol-1-yl-ethyl)-N4-(1-trifluoromethyl-cyclopropyl)-pyrido[3,2-d]pyrimidine-2,4-diamine], in data set [1], the EC50 was < 0.1 µM. For the same molecule, the CC50 at 3 days in data set [2] (Table 2, 3 days incubation) is > 10 µM.
Consider `CCOc1ccc(-c2ccc3nc(NCc4cc(Cl)cc(S(N)(=O)=O)c4)nc(NCC(F)(F)F)c3n2)cn1` [Example 233, 3-chloro-5-((6-(6-ethoxypyridin-3-yl)-4-(2,2,2-trifluoroethylamino)pyrido [3,2-d]pyrimidin-2-ylamino)methyl)benzenesulfonamide], for which the EC50 in data set [1] was < 0.1 µM. The CC50 at 3 days in data set [2] (Table 2, 3 days incubation) is 1 to 10 µM.
As to `CS(=O)(=O)c1cccc(-c2ccc3nc(NCc4cccc(S(N)(=O)=O)c4)nc(NCC(F)(F)F)c3n2)c1` [Example 14, 3-{[6-(3-Methanesulfonyl-phenyl)-4-(2,2,2-trifluoro-ethylamino)-pyrido[3,2-d]pyrimidin-2-ylamino]-methyl}-benzenesulfonamide], in data set [1], the concentration for a half-maximal effect (EC50) is < 0.1 µM. In data set [2] (Table 1, 3 days incubation), this molecule showed a CC50 at 3 days of 10 to 25 µM.
Consider `CC#Cc1ccc2nc(N[C@H](C)c3ccc(S(N)(=O)=O)cc3)nc(OC3CC3)c2n1` [Example 309, (R)-4-(1-(4-cyclopropoxy-6-(prop-1-ynyl)pyrido[3,2-d]pyrimidin-2-ylamino)ethyl) benzenesulfonamide], for which the EC50 in data set [1] was < 0.1 µM. Besides, the CC50 at 3 days in data set [2] (Table 2, 3 days incubation) is > 10 µM.
In the case of `CCS(=O)(=O)c1cc(-c2ccc3nc(NCc4ccc(S(N)(=O)=O)cc4)nc(NCC(F)(F)F)c3n2)ccc1OC` [Example 149, 4-((6-(3-(ethylsulfonyl)-4-methoxyphenyl)-4-(2,2,2-trifluoroethylamino)pyrido[3,2-d]pyrimidin-2-ylamino)methyl) benzenesulfonamide], the EC50 in data set [1] is < 0.1 µM. In data set [2] (Table 2, 3 days incubation), the CC50 at 3 days was > 10 µM.
For `C#Cc1ccc2nc(NCc3ccc(-n4cncn4)cc3)nc(N[C@@H](C)C(F)(F)F)c2n1` [Example 291, (S)-N^2-(4-(1H-1,2,4-triazol-1-yl)benzyl)-6-ethynyl-N^4-(1,1,1-trifluoropropan-2-yl)pyrido [3,2-d]pyrimidine-2,4-diamine], the EC50 in data set [1] is < 0.1 µM. In data set [2] (Table 2, 3 days incubation), the cytotoxic concentration (CC50) at 3 days is > 10 µM.
Take `C[C@@H](Nc1nc(OC2CC2)c2nc(C#CC3CC3)ccc2n1)c1ccc(S(N)(=O)=O)cc1` [Example 32, (R)-4-(1-(4-cyclopropoxy-6-(2-cyclopropylethynyl)pyrido[3,2-d]pyrimidin-2-ylamino)ethyl)benzenesulfonamide]: the EC50 in data set [1] was < 0.1 µM. Besides, the CC50 at 3 days in data set [2] (Table 2, 3 days incubation) is > 10 µM.
Regarding `CC(Cn1cncn1)Nc1nc(NC2(C(F)(F)F)CC2)c2nc(-c3ccc(NC4CC4)nc3)ccc2n1` (stereo not drawn) [Example 114, N^2-(1-(1H-1,2,4-triazol-1-yl)propan-2-yl)-6-(6-(cyclopropylamino)pyridin-3-yl)-N^4-(1-(trifluoromethyl)cyclopropyl)pyrido[3,2-d] pyrimidine-2,4-diamine], the EC50 in data set [1] was < 0.1 µM. The CC50 at 3 days in data set [2] (Table 2, 3 days incubation) was > 10 µM.
On to `CS(=O)(=O)c1cc(-c2ccc3nc(NCc4ccc(S(N)(=O)=O)cc4)nc(NCC(F)(F)F)c3n2)ccc1OC(F)F` [Example 164, 4-((6-(4-(difluoromethoxy)-3-(methylsulfonyl)phenyl)-4-(2,2,2-trifluoroethylamino)pyrido[3,2-d]pyrimidin-2-ylamino)methyl)benzene-sulfonamide], for which, in data set [1], the EC50 is < 0.1 µM. Besides, the CC50 at 3 days in data set [2] (Table 2, 3 days incubation) was > 10 µM.
The like results for `COc1ccc(-c2ccc3nc(NC(C)C#CC4CC4)nc(NCC(F)(F)F)c3n2)cc1S(N)(=O)=O` (stereo not drawn) [Example 239, 5-(2-(4-cyclopropylbut-3-yn-2-ylamino)-4-(2,2,2-trifluoroethylamino)pyrido [3,2-d]pyrimidin-6-yl)-2-methoxybenzenesulfonamide] were, in that order, < 0.1 µM and 1 to 10 µM.
In the case of `CCc1cc(S(N)(=O)=O)ccc1CNc1nc(NC2(C(F)(F)F)CC2)c2nc(-c3ccc(F)cc3)ccc2n1` [Example 68, 3-ethyl-4-((6-(4-fluorophenyl)-4-(1-(trifluoromethyl)cyclo-propylamino)pyrido[3,2-d]pyrimidin-2-ylamino)methyl) benzenesulfonamide], in data set [1], the EC50 is 0.25 to 2 µM. This molecule yielded a CC50 at 3 days in data set [2] (Table 2, 3 days incubation) of 1 to 10 µM.
The like results for `C[C@@H](Nc1nc(OC2CCC2)c2nc(C#CC3CC3)ccc2n1)c1ccc(S(N)(=O)=O)cc1` [Example 305, (R)-4-(1-(4-cyclobutoxy-6-(2-cyclopropylethynyl)pyrido [3,2-d]pyrimidin-2-ylamino)ethyl)benzenesulfonamide] were, in that order, < 0.1 µM and > 10 µM.
For the molecule `CS(=O)(=O)c1cc(-c2ccc3nc(NCc4ccc(-n5cncn5)cc4)nc(OC4CCC4)c3n2)ccc1OC(F)F` [Example 204, N-(4-(1H-1,2,4-triazol-1-yl)benzyl)-4-cyclobutoxy-6-(4-(difluoromethoxy)-3-(methylsulfonyl)phenyl)pyrido [3,2-d]pyrimidin-2-amine], the EC50 in data set [1] was < 0.1 µM. The same molecule yielded a cytotoxic concentration (CC50) at 3 days in data set [2] (Table 2, 3 days incubation) of 1 to 10 µM.
For `CS(=O)(=O)c1cc(-c2ccc3nc(NCc4cccnc4)nc(NCC(F)(F)F)c3n2)ccc1OC(F)F` [Example 178, 6-(4-(difluoromethoxy)-3-(methylsulfonyl)phenyl)-N^2-(pyridin-3-ylmethyl)-N^4-(2,2,2-trifluoroethyl)pyrido [3,2-d]pyrimidine-2,4-diamine], the EC50 in data set [1] is < 0.1 µM. The CC50 at 3 days in data set [2] (Table 2, 3 days incubation) was 1 to 10 µM.
The like results for `CCOc1ccc(-c2ccc3nc(N[C@H](C)c4ccc(S(N)(=O)=O)cc4)nc(OC4(C)CC4)c3n2)cc1S(N)(=O)=O` [Example 264, 4-((R)-1-(6-(4-ethoxy-3-(aminosulfonyl)phenyl)-4-(1-methylcyclopropoxy)pyrido [3,2-d]pyrimidin-2-ylamino)ethyl)benzenesulfonamide] were, in that order, < 0.1 µM and 1 to 10 µM.
Consider `COc1ccc(-c2ccc3nc(NCc4cc(C(F)(F)F)cc(S(N)(=O)=O)c4)nc(NCC(F)(F)F)c3n2)cc1S(C)(=O)=O` [Example 141, 3-((6-(4-methoxy-3-(methylsulfonyl)phenyl)-4-(2,2,2-trifluoroethylamino)pyrido[3,2-d]pyrimidin-2-ylamino)methyl)-5-(trifluoromethyl)benzene-sulfonamide], for which the EC50 in data set [1] was < 0.1 µM. For the same molecule, the CC50 at 3 days in data set [2] (Table 2, 3 days incubation) is > 10 µM.
The like results for `COc1ccc(-c2ccc3nc(NCc4cccc(S(C)(=O)=O)c4)nc(NCC(F)(F)F)c3n2)cc1S(C)(=O)=O` [Example 177, N^2-(3-(methylsulfonyl)benzyl)-6-(4-methoxy-3-(methylsulfonyl)phenyl)-N^4-(2,2,2-trifluoroethyl) pyrido[3,2-d]pyrimidine-2,4-diamine] were, in that order, < 0.1 µM and 1 to 10 µM.
For `CS(=O)(=O)c1cccc(CNc2nc(NCC(F)(F)F)c3nc(-c4ccc(OC(F)F)c(S(C)(=O)=O)c4)ccc3n2)c1` [Example 174, N^2-(3-(methylsulfonyl)benzyl)-6-(4-(difluoromethoxy)-3-(methylsulfonyl)phenyl)-N^4-(2,2,2-trifluoroethyl)pyrido [3,2-d]pyrimidine-2,4-diamine], the EC50 in data set [1] was < 0.1 µM. Besides, in data set [2] (Table 2, 3 days incubation), the CC50 at 3 days is < 1 µM.
As for `NS(=O)(=O)c1cc(Cl)cc(CNc2nc(NCC(F)(F)F)c3nc(C#CC4CC4)ccc3n2)c1` [Example 280, 3-chloro-5-((6-(2-cyclopropyl-ethynyl)-4-(2,2,2-trifluoro-ethylamino)pyrido[3,2-d]pyrimidin-2-ylamino)methyl) benzenesulfonamide], in data set [1], the EC50 was < 0.1 µM. Further, in data set [2] (Table 2, 3 days incubation), the CC50 at 3 days was > 10 µM.
With `COc1ccc(-c2ccc3nc(NCc4cccc(C(F)(F)F)c4)nc(NC4(C(F)(F)F)CC4)c3n2)cc1S(C)(=O)=O` [Example 113, N^2-(3-(trifluoromethyl)benzyl)-6-(4-methoxy-3-(methylsulfonyl)phenyl)-N^4-(1-(trifluoromethyl)cyclopropyl)pyrido[3,2-d] pyrimidine-2,4-diamine], the EC50 in data set [1] was in the range of 0.1 to 0.25 µM. Also, the CC50 at 3 days in data set [2] (Table 2, 3 days incubation) was > 10 µM.
On the same counts, the results for `FC(F)(F)C1(Nc2nc(NCc3cccc(-n4cncn4)c3)nc3ccc(-c4ccc(NC5CC5)nc4)nc23)CC1` [Example 70, N^2-(3-(1H-1,2,4-triazol-1-yl)benzyl)-6-(6-(cyclopropylamino)pyridin-3-yl)-N^4-(1-(trifluoromethyl)cyclopropyl) pyrido[3,2-d]pyrimidine-2,4-diamine] are < 0.1 µM and > 10 µM.
Molecule `Fc1ccc(-c2ccc3nc(NCc4cc(F)cc(-n5cncn5)c4)nc(NC4(C(F)(F)F)CC4)c3n2)cc1` [Example 128, N^2-(3-fluoro-5-(1H-1,2,4-triazol-1-yl)benzyl)-6-(4-fluorophenyl)-N^4-(1-(trifluoromethyl)cyclopropyl) pyrido[3,2-d]pyrimidine-2,4-diamine] showed an EC50 in data set [1] of 0.25 to 2 µM. The CC50 at 3 days in data set [2] (Table 2, 3 days incubation) was > 10 µM.

The record behind these values is patent publication US8536187B2 (Gilead Sciences, Inc., priority 2008, dated 2013).
